The source of these data is ChEMBL document CHEMBL4342418, “1,2,3-Triazole-containing hybrids as potential anticancer agents: Current developments, action mechanisms and structure-activity relationships” (Eur J Med Chem, 2019).

Converted amounts (≈) assume the structure as drawn.

One experiment relates to SK-N-SH. The experiment in a line: Antiproliferative activity against human SK-N-SH cells by MTT assay. The experiment is classed as functional, cell-based.
For experiment [1], the system named is HepG2. As to the kind of experiment: Antiproliferative activity against human HepG2 cells by MTT assay. The experiment is classed as functional, cell-based.
Another experiment concerns MGC-803. The experiment in a line: Antiproliferative activity against human MGC803 cells by MTT assay. The format is functional, cell-based.
Another experiment deals with DU-145. The experiment in a line: Antiproliferative activity against human DU145 cells by SRB assay. The experiment is classed as functional, cell-based.
The test system of experiment [2] is HepG2. As to the kind of experiment: Antiproliferative activity against human HepG2 cells by SRB assay. The format is functional, cell-based.
Experiment [3] has as its system A549. As to the kind of experiment: Antiproliferative activity against human A549 cells by SRB assay. The experiment is classed as functional, cell-based.
Experiment [4] relates to HeLa. As to the kind of experiment: Antiproliferative activity against human HeLa cells by SRB assay. The experiment is classed as functional, cell-based.
Experiment [5] relates to MCF7. As to the kind of experiment: Antiproliferative activity against human MCF7 cells assessed as reduction in cell viability after 48 hrs by MTT assay. The format is functional, cell-based. Particulars: MCF7, 48 h.
The test system of a further experiment is SW480. The experiment in a line: Antiproliferative activity against human SW480 cells assessed as reduction in cell viability after 48 hrs by MTT assay. The format is functional, cell-based. Conditions: SW480, 48 h.
Experiment [6] deals with A549. The experiment in a line: Antiproliferative activity against human A549 cells assessed as reduction in cell viability after 48 hrs by MTT assay. The format is functional, cell-based. Particulars: A549, 48 h.
Experiment [7] in a line: Antiproliferative activity against human SMCC7721 cells assessed as reduction in cell viability after 48 hrs by MTT assay. The format is functional, cell-based.
For experiment [8], the system named is MCF7. The experiment in a line: cells. The format is functional, cell-based. Particulars: Homo sapiens.
Description: Antiproliferative activity against human MCF7 cells by MTT assay
Experiment [9] concerns HCT-116. The experiment in a line: Antiproliferative activity against human HCT116 cells by MTT assay. The format is functional, cell-based.
Experiment [10] concerns HCT-116. The experiment in a line: Antiproliferative activity against human HCT116 cells assessed as reduction in cell viability after 48 hrs by MTT assay. The format is functional, cell-based. Particulars: HCT-116, 48 h.
The subject of a further experiment is C2C12. As to the kind of experiment: Cytotoxicity against mouse C2C12 cells assessed as reduction in cell viability after 48 hrs by MTT assay. The format is cell-based. Conditions: C2C12, 48 h.
A further experiment deals with Caco-2. The experiment in a line: Antiproliferative activity against human Caco2 cells assessed as reduction in cell viability after 48 hrs by MTT assay. The experiment is classed as functional, cell-based. Conditions: Caco-2, 48 h.
The subject of a further experiment is T47D. As to the kind of experiment: Antiproliferative activity against human T47D cells assessed as reduction in cell viability after 48 hrs by MTT assay. The experiment is classed as functional, cell-based.
The next experiment has as its system PC-3. As to the kind of experiment: cells. The format is functional, cell-based. Particulars: Homo sapiens, PC-3, 48 h.
For the next experiment, the system named is HT-29. As to the kind of experiment: Antiproliferative activity against human HT-29 cells assessed as reduction in cell viability after 48 hrs by MTT assay. Particulars: HT-29, 48 h. The format is functional, cell-based.
The next experiment concerns U-87 MG. The experiment in a line: Antiproliferative activity against human U87MG cells assessed as reduction in cell viability after 48 hrs by MTT assay. The experiment is classed as functional, cell-based, U-87MG ATCC.
In experiment [11] the test system is MDA-MB-231. The experiment in a line: Antiproliferative activity against human MDA-MB-231 cells by SRB assay. The format is functional.
The subject of the next experiment is SUM-159-PT. The experiment in a line: Antiproliferative activity against human SUM159 cells assessed as reduction in cell viability after 72 hrs by MTT assay. The format is functional, cell-based.
For another experiment, the system named is SK-BR-3. The experiment in a line: Antiproliferative activity against human SKBR3 cells assessed as reduction in cell viability after 72 hrs by MTT assay. The experiment is classed as functional, cell-based. Particulars: SK-BR-3, 72 h.
In a further experiment the test system is KG-1a. The experiment in a line: Antiproliferative activity against human KG1a cells assessed as reduction in cell viability after 72 hrs by MTT assay. The format is functional, cell-based.
In experiment [12] the test system is HeLa. The experiment in a line: Antiproliferative activity against human HeLa cells assessed as reduction in cell viability after 48 hrs by MTT assay. The experiment is classed as functional, cell-based.
For experiment [13], the system named is MDA-MB-231. The experiment in a line: Antiproliferative activity against human MDA-MB-231 cells assessed as reduction in cell viability after 48 hrs by MTT assay. The format is functional, cell-based. Particulars: MDA-MB-231, 48 h.

Description for PC-3: Antiproliferative activity against human PC3 cells assessed as reduction in cell viability after 48 hrs by MTT assay

Take `COc1cc(/C=C/C(=O)c2ccc(OCCCn3cc(CSc4nnnn4C)nn3)cc2)cc(OC)c1OC`: the half-inhibitory concentration (IC50) in the experiment on SK-N-SH, in the experiment on HepG2 [1] and in the experiment with MGC-803 was 1.52 to 10.4 µM each time.
Consider `COc1ccc(/C=C/C(=O)c2cc(OC)c(OC)c(OC)c2)cc1OCc1cn(Cc2ccc(F)cc2)nn1`, for which the GI50 in the experiment with DU-145, with HepG2 [2], in the experiment on A549 [3] and in the experiment with HeLa [4] was 1.3 to 8.2 µM throughout.
For `COc1cc([C@@H]2c3cc4c(cc3[C@H](n3cc(CO[C@@H]5O[C@H](CO[C@@H]6O[C@H](CO)[C@@H](O)[C@H](O)[C@H]6O)[C@@H](O)[C@H](O)[C@H]5O)nn3)[C@H]3COC(=O)[C@H]23)OCO4)cc(OC)c1OC`, the IC50 (in the experiment with MCF7 [5]; with SW480; with A549 [6]; in [7]) was 0.67 to 7.41 µM throughout.
For the molecule `COc1cc(/C=C/C(=O)c2ccc(OCCCn3cc(CSC4=NCCS4)nn3)cc2)cc(OC)c1OC`, the IC50 in the experiment with SK-N-SH, with HepG2 [1] and in the experiment on MGC-803 was 1.52 to 10.4 µM each time.
In the case of `Cc1c(C2=NN(C(=S)NCc3ccccc3)C(c3ccccc3)C2)nnn1-c1ccc(-n2nnc(C3=NN(C(=S)NCc4ccccc4)C(c4ccccc4)C3)c2C)cc1` (stereo not drawn), the IC50 is 43.5 µg/mL (≈ 52.6 µM) in the experiment with MCF7 [8], more than 100 µg/mL in the experiment with HepG2 [1] and more than 100 µg/mL with HCT-116 [9].
Regarding `O=C(Nc1cccc(-n2cc(Oc3ccc(-c4cc(-c5ccc(Oc6cn(-c7cccc(NC(=O)[C@@H]8CCCN8)c7)nn6)cc5)cc(-c5ccc(Oc6cn(-c7cccc(NC(=O)[C@@H]8CCCN8)c7)nn6)cc5)c4)cc3)nn2)c1)[C@@H]1CCCN1`, the half-inhibitory concentration (IC50) with HCT-116 [10] is 7.1 to 13.4 µM; in the experiment with MCF7 [5], 7.1 to 13.4 µM; in the experiment on C2C12, more than 40 µM.
`O=C(Cn1cc(C(O)c2ccccc2)nn1)N1CCN(c2nc3ccccc3s2)CC1` (stereo not drawn): the 50% inhibitory concentration (IC50) in the experiment with HCT-116 [10], with Caco-2, with MCF7 [5] and in the experiment on T47D was 33 to 154 µM in each case.
Regarding `CC(=O)N1N=C(c2nnn(-c3ccc(-n4nnc(C5=NN(C(C)=O)C(c6ccccc6)C5)c4C)cc3)c2C)CC1c1ccccc1` (stereo not drawn), the IC50 is 66.8 µg/mL (≈ 109 µM) with MCF7 [8], more than 100 µg/mL in the experiment with HepG2 [1] and more than 100 µg/mL in the experiment with HCT-116 [9].
For the molecule `COc1ccc(Cn2cc(C(=O)c3cn(-c4ccccc4)nc3-c3ccc(F)cc3)nn2)cc1OC`, the IC50 with PC-3, in the experiment with HT-29, in the experiment on A549 [6] and with U-87 MG was 0.86 to 3.71 µM throughout.
Turning to `O=C(Nc1ccc(-n2cc(Oc3ccc(-c4cc(-c5ccc(Oc6cn(-c7ccc(NC(=O)[C@@H]8CCCN8)cc7)nn6)cc5)cc(-c5ccc(Oc6cn(-c7ccc(NC(=O)[C@@H]8CCCN8)cc7)nn6)cc5)c4)cc3)nn2)cc1)[C@@H]1CCCN1`, the figures for the 50% inhibitory concentration (IC50) with HCT-116 [10], in the experiment on MCF7 [5] and in the experiment on C2C12 were 7.1 to 13.4 µM, 7.1 to 13.4 µM and more than 40 µM, respectively.
For `COc1ccc(Cn2cc(C(=O)c3cn(-c4ccccc4)nc3-c3ccc(Cl)cc3)nn2)cc1OC`, the concentration for half-maximal inhibition (IC50) in the experiment on PC-3, in the experiment on HT-29, in the experiment with A549 [6] and in the experiment on U-87 MG was 0.86 to 3.71 µM in each case.
For the molecule `Cc1ccc(-c2nn(Cc3cn(Cc4ccccc4)nn3)c(=O)o2)cc1`, the GI50 in the experiment with MDA-MB-231 [11], in the experiment on DU-145, with HepG2 [2] and in the experiment on HeLa [4] was 0.82 to 2.39 µM throughout.
As to `Fc1cccc(COc2ccc(Nc3ncnc4ccc(-n5cc(CN6CCCC6)nn5)cc34)cc2Cl)c1`, the IC50 in the experiment on SUM-159-PT, with SK-BR-3 and in the experiment with KG-1a was 2.06 to 7.47 µM in each case.
As to `O=c1oc(-c2ccccc2)nn1Cc1cn(Cc2ccccc2)nn1`, the GI50 with MDA-MB-231 [11], with DU-145, in the experiment with HepG2 [2] and in the experiment with HeLa [4] was 0.82 to 2.39 µM each time.
Consider `CNC(=S)N1N=C(c2nnn(-c3ccc(-n4nnc(C5=NN(C(=S)NC)C(c6ccccc6)C5)c4C)cc3)c2C)CC1c1ccccc1` (stereo not drawn), for which the figures for the half-maximal inhibitory concentration (IC50) in the experiment on MCF7 [8], in the experiment on HepG2 [1] and in the experiment with HCT-116 [9] were 3.46 µg/mL (≈ 5.13 µM), more than 100 µg/mL and more than 100 µg/mL, respectively.
Take `COc1cc(/C=C/C(=O)c2ccc(OCCCn3cc(CSc4nncs4)nn3)cc2)cc(OC)c1OC`: the half-maximal inhibitory concentration (IC50) in the experiment on SK-N-SH, in the experiment on HepG2 [1] and with MGC-803 was 1.52 to 10.4 µM in each case.
For the molecule `N#CC1=C(N)Oc2ccccc2C12C(=O)N(Cc1cn(CCCCBr)nn1)c1ccccc12` (stereo not drawn), the IC50 in the experiment with HeLa [12], with MDA-MB-231 [13] and in the experiment on MCF7 [5] was 4.8 to 9.21 µM each time.
